Assays:
[1] = test system: recombinant NL4-3 virus (nef section replaced with Renilla luciferase gene) in MT-2 cells; test: HIV cell culture assay (antiviral activity, luciferase readout); type: cell-based; conditions: Renilla, NL43
Procedure: HIV cell culture assay—MT-2 cells, 293T cells and the proviral DNA clone of NL4-3 virus were obtained from the NIH AIDS Research and Reference Reagent Program. MT-2 cells were propagated in RPMI 1640 media supplemented with 10% heat inactivated fetal bovine serum (FBS), 100 μg/ml penicillin G and up to 100 units/mL streptomycin. The 293T cells were propagated in DMEM media supplemented with 10% heat inactivated FBS, 100 μg/mL penicillin G and 100 μg/mL streptomycin. A recombinant NL4-3 proviral clone, in which a section of the nef gene was replaced with the Renilla luciferase gene, was used to make the reference virus used in these studies. The recombinant virus was prepared through transfection of the recombinant NL4-3 proviral clone into 293T cells using Transit-293 Transfection Reagent from Mirus Bio LLC (Madison, Wis.). Supernatent was harvested after 2-3 days and the amount of virus present was titered in MT-2 cells using luciferase enzyme activity as a marker by measuring luciferase enzyme activity. Luciferase was quantitated using the EnduRen Live Cell Substrate from Promega (Madison, Wis.). Antiviral activities of compounds toward the recombinant virus were quantified by measuring luciferase activity in MT-2 cells infected for 4-5 days with the recombinant virus in the presence of serial dilutions of the compound.
The 50% effective concentration (EC50) was calculated by using the exponential form of the median effect equation where (Fa)=1/[1+(ED50/drug conc.)^m] (Johnson V A, Byington R T. Infectivity Assay. In Techniques in HIV Research. ed. Aldovini A, Walker B D. 71-76. New York: Stockton Press. 1990). Curve fitting and analysis were performed with ActivityBase XE Runner software version 9.1.0.4 using model 203 (ID Business Solutions, LTD, Guildford, UK).

[2] = Compound cytotoxicity, XTT-based colorimetric assay; type: cell-based; conditions: human; uninfected MT2 cells, day 4, XTT-based colorimetric assay
Procedure: Compound cytotoxicity and the corresponding CC50 values were determined using the same protocol as described in the antiviral assay except that uninfected cells were used. Cytotoxicity was assessed on day 4 in uninfected MT2 cells by using a XTT (2,3-bis[2-Methoxy-4-nitro-5-sulfophenyl]-2H-tetrazolium-5-carboxyanilide inner salt)-based colorimetric assay (Sigma-Aldrich, St Louis, Mo.).

Row | Compound | EC50 [1] | CC50 at 4 days [2]
1 | Cn1nc(NS(C)(=O)=O)c2c(Cl)ccc(-n3c([C@H](Cc4cc(F)cc(F)c4)NC(=O)Cn4nc(C(F)F)c5c4C(F)(F)[C@@H]4C[C@H]54)nc(-c4nccc(C(F)F)n4)cc3=O)c21 (atropisomer, axis not shown; (aR)) [Example 5, N-((S)-1-((1′P)-1′-(4-chloro-1-methyl-3-(methylsulfonamido)-1H-indazol-7-yl)-4-(difluoromethyl)-6′-oxo-1′,6′-dihydro-[2,4′-bipyrimidin]-2′-yl)-2-(3,5-difluorophenyl)ethyl)-2-((3bS,4aR)-3-(difluoromethyl)-5,5-difluoro-3b,4,4a,5-tetrahydro-1H-cyclopropa[3,4]cyclopenta[1,2-c]pyrazol-1-yl)acetamide] | 0.054 nM | > 100 nM
2 | COC(C)(C)CCc1cc(=O)n(-c2ccc(Cl)c3c(NS(C)(=O)=O)nn(C)c23)c([C@H](Cc2cc(F)cc(F)c2)NC(=O)Cn2nc(C(F)F)c3c2C(F)(F)[C@@H]2C[C@H]32)n1 (atropisomer, axis not shown; (P)) [Example 10, N-((S)-1-((1P)-1-(4-chloro-1-methyl-3-(methylsulfonamido)-1H-indazol-7-yl)-4-(3-methoxy-3-methylbutyl)-6-oxo-1,6-dihydropyrimidin-2-yl)-2-(3,5-difluorophenyl)ethyl)-2-((3bS,4aR)-3-(difluoromethyl)-5,5-difluoro-3b,4,4a,5-tetrahydro-1H-cyclopropa[3,4]cyclopenta[1,2-c]pyrazol-1-yl)acetamide] | 0.079 nM | > 100 nM
3 | Cc1cc(C)nc(-c2cc(=O)n(-c3ccc(Cl)c4c(NS(C)(=O)=O)nn(C)c34)c([C@H](Cc3cc(F)cc(F)c3)NC(=O)Cn3nc(C(F)F)c4c3C(F)(F)[C@@H]3C[C@H]43)n2)n1 (atropisomer, axis not shown; (aR)) [Example 4, N-((S)-1-((1′P)-1′-(4-chloro-1-methyl-3-(methylsulfonamido)-1H-indazol-7-yl)-4,6-dimethyl-6′-oxo-1′,6′-dihydro-[2,4′-bipyrimidin]-2′-yl)-2-(3,5-difluorophenyl)ethyl)-2-((3bS,4aR)-3-(difluoromethyl)-5,5-difluoro-3b,4,4a,5-tetrahydro-1H-cyclopropa[3,4]cyclopenta[1,2-c]pyrazol-1-yl)acetamide] | 0.044 nM | > 100 nM
4 | COc1cncc(-c2cc(=O)n(-c3ccc(Cl)c4c(NS(=O)(=O)C5CC5)nn(CC(F)F)c34)c([C@H](Cc3cc(F)cc(F)c3)NC(=O)Cn3nc(C(F)F)c4c3C(F)(F)[C@@H]3C[C@H]43)n2)n1 (atropisomer, axis not shown; (P)) [Example 40, N-((S)-1-((1P)-1-(4-chloro-3-(cyclopropanesulfonamido)-1-(2,2-difluoroethyl)-1H-indazol-7-yl)-4-(6-methoxypyrazin-2-yl)-6-oxo-1,6-dihydropyrimidin-2-yl)-2-(3,5-difluorophenyl)ethyl)-2-((3bS,4aR)-3-(difluoromethyl)-5,5-difluoro-3b,4,4a,5-tetrahydro-1H-cyclopropa[3,4]cyclopenta[1,2-c]pyrazol-1-yl)acetamide] | 0.6 nM | > 100 nM
5 | O=C(Cn1nc(C(F)F)c2c1C(F)(F)[C@@H]1C[C@H]21)N[C@@H](Cc1cc(F)cc(F)c1)c1nc(-c2cccc(F)n2)cc(=O)n1-c1ccc(Cl)c2c(NS(=O)(=O)C3CC3)nn(CC(F)F)c12 (atropisomer, axis not shown; (P)) [Example 28, N-((S)-1-((1P)-1-(4-chloro-3-(cyclopropanesulfonamido)-1-(2,2-difluoroethyl)-1H-indazol-7-yl)-4-(6-fluoropyridin-2-yl)-6-oxo-1,6-dihydropyrimidin-2-yl)-2-(3,5-difluorophenyl)ethyl)-2-((3bS,4aR)-3-(difluoromethyl)-5,5-difluoro-3b,4,4a,5-tetrahydro-1H-cyclopropa[3,4]cyclopenta[1,2-c]pyrazol-1-yl)acetamide] | 0.39 nM | > 100 nM
6 | Cn1nc(NS(C)(=O)=O)c2c(Cl)ccc(-n3c([C@H](Cc4cc(F)cc(F)c4)NC(=O)Cn4nc(C(F)F)c5c4C(F)(F)[C@@H]4C[C@H]54)nc(-c4ccn(CC(C)(F)F)n4)cc3=O)c21 (atropisomer, axis not shown; (P)) [Example 8, N-((S)-1-((1P)-1-(4-chloro-1-methyl-3-(methylsulfonamido)-1H-indazol-7-yl)-4-(1-(2,2-difluoropropyl)-1H-pyrazol-3-yl)-6-oxo-1,6-dihydropyrimidin-2-yl)-2-(3,5-difluorophenyl)ethyl)-2-((3bS,4aR)-3-(difluoromethyl)-5,5-difluoro-3b,4,4a,5-tetrahydro-1H-cyclopropa[3,4]cyclopenta[1,2-c]pyrazol-1-yl)acetamide] | 0.28 nM | > 100 nM
7 | Cn1nc(C(F)(F)F)cc1-c1cc(=O)n(-c2ccc(Cl)c3c(NS(C)(=O)=O)nn(C)c23)c([C@H](Cc2cc(F)cc(F)c2)NC(=O)Cn2nc(C(F)F)c3c2C(F)(F)[C@@H]2C[C@H]32)n1 (atropisomer, axis not shown; (P)) [Example 19, N-((S)-1-((1P)-1-(4-chloro-1-methyl-3-(methylsulfonamido)-1H-indazol-7-yl)-4-(1-methyl-3-(trifluoromethyl)-1H-pyrazol-5-yl)-6-oxo-1,6-dihydropyrimidin-2-yl)-2-(3,5-difluorophenyl)ethyl)-2-((3bS,4aR)-3-(difluoromethyl)-5,5-difluoro-3b,4,4a,5-tetrahydro-1H-cyclopropa[3,4]cyclopenta[1,2-c]pyrazol-1-yl)acetamide] | 0.74 nM | > 100 nM
8 | O=C(Cn1nc(C(F)F)c2c1C(F)(F)[C@@H]1C[C@H]21)N[C@@H](Cc1cc(F)cc(F)c1)c1nc(-c2cccc(C(F)(F)F)n2)cc(=O)n1-c1ccc(Cl)c2c(NS(=O)(=O)C3CC3)nn(CC(F)F)c12 (atropisomer, axis not shown; (P)) [Example 44, N-((S)-1-((1P)-1-(4-chloro-3-(cyclopropanesulfonamido)-1-(2,2-difluoroethyl)-1H-indazol-7-yl)-6-oxo-4-(6-(trifluoromethyl)pyridin-2-yl)-1,6-dihydropyrimidin-2-yl)-2-(3,5-difluorophenyl)ethyl)-2-((3bS,4aR)-3-(difluoromethyl)-5,5-difluoro-3b,4,4a,5-tetrahydro-1H-cyclopropa[3,4]cyclopenta[1,2-c]pyrazol-1-yl)acetamide] | 0.24 nM | > 100 nM
9 | COc1ccnc(-c2cc(=O)n(-c3ccc(Cl)c4c(NS(=O)(=O)C5CC5)nn(CC(F)F)c34)c([C@H](Cc3cc(F)cc(F)c3)NC(=O)Cn3nc(C(F)F)c4c3C(F)(F)[C@@H]3C[C@H]43)n2)n1 (atropisomer, axis not shown; (aR)) [Example 33, N-((S)-1-((1′P)-1′-(4-chloro-3-(cyclopropanesulfonamido)-1-(2,2-difluoroethyl)-1H-indazol-7-yl)-4-methoxy-6′-oxo-1′,6′-dihydro-[2,4′-bipyrimidin]-2′-yl)-2-(3,5-difluorophenyl)ethyl)-2-((3bS,4aR)-3-(difluoromethyl)-5,5-difluoro-3b,4,4a,5-tetrahydro-1H-cyclopropa[3,4]cyclopenta[1,2-c]pyrazol-1-yl)acetamide] | 0.13 nM | > 100 nM
10 | Cn1nc(NS(C)(=O)=O)c2c(Cl)ccc(-n3c([C@H](Cc4cc(F)cc(F)c4)NC(=O)Cn4nc(C(F)F)c5c4C(F)(F)[C@@H]4C[C@H]54)nc(-c4cnc(C(C)(F)F)s4)cc3=O)c21 (atropisomer, axis not shown; (P)) [Example 15, N-((S)-1-((1P)-1-(4-chloro-1-methyl-3-(methylsulfonamido)-1H-indazol-7-yl)-4-(2-(1,1-difluoroethyl)thiazol-5-yl)-6-oxo-1,6-dihydropyrimidin-2-yl)-2-(3,5-difluorophenyl)ethyl)-2-((3bS,4aR)-3-(difluoromethyl)-5,5-difluoro-3b,4,4a,5-tetrahydro-1H-cyclopropa[3,4]cyclopenta[1,2-c]pyrazol-1-yl)acetamide] | 0.59 nM | > 100 nM
11 | COC(C)(C)C#Cc1cc(=O)n(-c2ccc(Cl)c3c(NS(=O)(=O)C4CC4)nn(CC(F)F)c23)c([C@H](Cc2cc(F)cc(F)c2)NC(=O)Cn2nc(C(F)(F)F)c3c2C(F)(F)[C@@H]2C[C@H]32)n1 (atropisomer, axis not shown; (P)) [Example 45, N-((S)-1-((1P)-1-(4-chloro-3-(cyclopropanesulfonamido)-1-(2,2-difluoroethyl)-1H-indazol-7-yl)-4-(3-methoxy-3-methylbut-1-yn-1-yl)-6-oxo-1,6-dihydropyrimidin-2-yl)-2-(3,5-difluorophenyl)ethyl)-2-((3bS,4aR)-5,5-difluoro-3-(trifluoromethyl)-3b,4,4a,5-tetrahydro-1H-cyclopropa[3,4]cyclopenta[1,2-c]pyrazol-1-yl)acetamide] | 0.12 nM | > 100 nM

From patent publication US20220409619A1, “INHIBITORS OF HUMAN IMMUNODEFICIENCY VIRUS REPLICATION” (VIIV HEALTHCARE UK (No. 5) LIMITED, priority 2019, published 2022)
